Measurements as given in ChEMBL document CHEMBL1201862, “PubChem BioAssay data set” (2004).
The source made the active and inactive calls.

Tests used:
[1] = Luminescence Cell-Based Dose Response HTS to Identify Activators of Luciferase Translation or Activity in H4 […] Cells. [Related pubchem assays: 1829 (Project Summary), 1814 (Primary HTS)]; type: functional
[2] = Luminescence Cell-Based Dose Confirmation HTS to Identify Activators of 5'UTR Stem-Loop Driven Alpha-Synuclein mRNA Translation in H4 Neuroglioblastoma Cells. [Related pubchem assays: 1829 (Project Summary), 1814 (Primary HTS)]; type: functional
H4 = test: Luminescence Cell-Based Dose Response HTS to Identify Activators of 5'UTR Stem-Loop Driven Prion Protein mRNA Translation in H4 Neuroglioblastoma Cells. [Related pubchem assays: 1829 (Project Summary), 1814 (Primary HTS)]; type: functional; details: Homo sapiens
Streptokinase A = target: T1, Streptokinase A (Streptococcus pyogenes serotype M1, UniProt P10520); test: viability-normalized secreted streptokinase activity reduction – plasminogen activation absorbance, OD405, dose response (AID 1914); type: functional, Streptococcus pyogenes M1 GAS;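 also: secreted streptokinase activity via plasminogen activation per viability signal from cell pellet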
T1 sequence (P10520 whole entry): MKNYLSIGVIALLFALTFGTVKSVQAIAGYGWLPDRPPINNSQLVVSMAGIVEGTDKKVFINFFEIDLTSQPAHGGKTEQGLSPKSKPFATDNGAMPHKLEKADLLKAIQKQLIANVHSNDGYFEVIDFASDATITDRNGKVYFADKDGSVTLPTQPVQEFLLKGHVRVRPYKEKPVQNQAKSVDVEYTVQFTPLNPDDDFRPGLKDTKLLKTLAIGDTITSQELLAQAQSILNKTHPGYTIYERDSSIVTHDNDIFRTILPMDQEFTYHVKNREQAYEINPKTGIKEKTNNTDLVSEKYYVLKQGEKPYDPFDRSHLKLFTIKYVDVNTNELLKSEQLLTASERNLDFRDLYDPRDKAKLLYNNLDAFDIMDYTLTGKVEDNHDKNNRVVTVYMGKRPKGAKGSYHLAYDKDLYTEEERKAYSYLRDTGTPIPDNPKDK

[3] = target: T2, Corticotropin-releasing factor receptor 2/Corticotropin-releasing factor-binding protein (Homo sapiens, UniProt P24387+Q13324); test: activators of CRF receptor 2 with binding protein – uHTS hits, confirmation (AID 602473); type: functional; details: read-out: EC50_Mean
T2 sequence (Q13324 whole entry): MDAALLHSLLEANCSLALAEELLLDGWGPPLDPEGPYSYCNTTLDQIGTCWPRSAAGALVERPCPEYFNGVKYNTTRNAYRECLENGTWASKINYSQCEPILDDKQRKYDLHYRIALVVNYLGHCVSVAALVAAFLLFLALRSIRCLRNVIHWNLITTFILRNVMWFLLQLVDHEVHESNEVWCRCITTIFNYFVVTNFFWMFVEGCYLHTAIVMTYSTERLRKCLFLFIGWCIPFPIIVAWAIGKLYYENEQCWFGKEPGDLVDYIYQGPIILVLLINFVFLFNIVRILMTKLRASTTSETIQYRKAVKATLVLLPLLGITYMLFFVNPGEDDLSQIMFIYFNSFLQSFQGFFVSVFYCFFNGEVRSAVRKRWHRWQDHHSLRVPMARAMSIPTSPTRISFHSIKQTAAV
T2 sequence (P24387 whole entry): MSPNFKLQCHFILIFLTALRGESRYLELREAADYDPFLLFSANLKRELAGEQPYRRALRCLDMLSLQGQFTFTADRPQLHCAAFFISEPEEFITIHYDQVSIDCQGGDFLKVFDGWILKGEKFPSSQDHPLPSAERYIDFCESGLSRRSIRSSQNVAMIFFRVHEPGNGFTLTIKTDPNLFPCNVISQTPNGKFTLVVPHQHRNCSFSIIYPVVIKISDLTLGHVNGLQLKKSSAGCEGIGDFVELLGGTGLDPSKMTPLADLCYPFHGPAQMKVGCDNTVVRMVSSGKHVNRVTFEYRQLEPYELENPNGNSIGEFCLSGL

Streptococcus = test: GAS UMAA2166 growth inhibition – luminescence, BacTiterGlo, counter-screen for streptokinase expression inhibitor project, dose response (AID 1915); type: functional, organism-based;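 also: potency for reduction of bacterial viability or growth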
Cytochrome P450 1A2 = target: T3, Cytochrome P450 1A2 (Homo sapiens, UniProt P05177);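 also: PubChem cytochrome P450 panel assay, CYP1A2 panel member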
T3 sequence (P05177 whole entry): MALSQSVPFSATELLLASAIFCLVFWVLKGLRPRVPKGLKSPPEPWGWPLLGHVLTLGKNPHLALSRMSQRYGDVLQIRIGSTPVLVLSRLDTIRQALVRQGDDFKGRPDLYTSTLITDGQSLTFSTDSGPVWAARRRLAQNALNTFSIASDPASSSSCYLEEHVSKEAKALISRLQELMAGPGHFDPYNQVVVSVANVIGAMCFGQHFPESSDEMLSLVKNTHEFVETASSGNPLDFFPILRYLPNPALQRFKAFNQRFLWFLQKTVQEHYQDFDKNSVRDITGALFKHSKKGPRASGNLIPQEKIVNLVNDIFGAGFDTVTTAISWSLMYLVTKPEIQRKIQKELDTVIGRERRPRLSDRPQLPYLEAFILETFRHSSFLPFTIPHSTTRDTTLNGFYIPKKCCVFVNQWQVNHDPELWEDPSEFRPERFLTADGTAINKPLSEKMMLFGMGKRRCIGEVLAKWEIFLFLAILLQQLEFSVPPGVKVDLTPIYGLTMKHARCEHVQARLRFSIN

[4] = tested on: Streptococcus sp. 'group A'; test: Streptococcus pyogenes SK(-)GAS viability under kanamycin – luminescence, BacTiterGlo, confirmation, counter-screen for streptokinase expression inhibitor project, dose response (AID 1900); type: functional, organism-based
INS1 = test: INS-1E survival protection against cytokine death – cell-based, luminescence, retest, dose response (AID 449756); type: functional; details: Rattus norvegicus;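 also: cell death triggered by IL-1 beta plus TNF-alpha plus IFN-gamma mixture; protective hits raise ATP signal compared with cytokine alone wells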
Cytochrome P450 2C19 = Cytochrome P450 2C19 (Homo sapiens, UniProt P33261); test: Cytochrome panel assay with activity outcomes. Panel member name: p450-cyp2c19 Compounds with AC50 equal or less than 10 uM are considered active; type: functional
[5] = Luminescence Cell-Based Dose Response HTS to Identify Inhibitors of 5'UTR Stem-Loop Driven Prion Protein mRNA Translation in H4 Neuroglioblastoma Cells. [Related pubchem assays: 1827 (Project Summary), 1813 (Primary HTS)]; type: functional
[6] = alpha-synuclein stem-loop luciferase translation blockers – H4 neuroglioma cells, luminescence, confirmation (AID 1988); type: functional, cell-based
[7] = luciferase reporter signal suppression in cells – H4 neuroglioma cells, luminescence, dose response (AID 1990); type: functional, cell-based

Cytochrome P450 2C19, sequence (P33261 whole entry): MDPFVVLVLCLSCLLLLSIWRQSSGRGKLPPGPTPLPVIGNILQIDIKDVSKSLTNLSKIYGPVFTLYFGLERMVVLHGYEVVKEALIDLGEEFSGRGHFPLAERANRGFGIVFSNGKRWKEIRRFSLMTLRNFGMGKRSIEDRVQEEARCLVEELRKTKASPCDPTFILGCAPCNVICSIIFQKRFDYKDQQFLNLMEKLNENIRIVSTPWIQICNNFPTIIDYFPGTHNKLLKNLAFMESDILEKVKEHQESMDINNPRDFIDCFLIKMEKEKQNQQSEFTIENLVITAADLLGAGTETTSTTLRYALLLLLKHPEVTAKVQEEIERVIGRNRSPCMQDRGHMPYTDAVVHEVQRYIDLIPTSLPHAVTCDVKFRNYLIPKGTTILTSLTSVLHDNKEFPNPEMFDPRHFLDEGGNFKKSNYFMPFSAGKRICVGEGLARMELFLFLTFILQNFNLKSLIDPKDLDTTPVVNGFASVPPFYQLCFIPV

NC1=C(c2nc3ccccc3[nH]2)C(=O)CN1c1ccccc1
EC50 [1]: 79.8 µM (active)
EC50 [2]: > 120 µM (not active)
EC50 (H4): 6.44 µM (active)

O=C(Nc1cccnc1)c1ccc(CN2CCc3ccccc3C2)cc1
EC50 [1]: 28.6 µM (active)
EC50 [2]: 50.3 µM (active)
EC50 (H4): > 120 µM (not active)

Cc1ccc(Cn2nnc3c(=O)[nH]c(C4CCN(S(=O)(=O)c5cc(C)ccc5C)CC4)nc32)cc1
EC50 (Streptokinase A): 21.4 µM (active)

CC(Oc1ccc(C(=O)c2ccccc2)cc1)C(=O)Nc1ccc(S(N)(=O)=O)cc1 (configuration not stated)
EC50 [3]: 8.21 µM (active)

CN(C)C=O.COCCn1c(SCc2nc(O)c3c(C)c(C(=O)OC)sc3n2)nc2ccccc21
EC50 (Streptococcus): 101 µM (active)
EC50 (Streptokinase A): > 150 µM (not active)
AC50 (Cytochrome P450 1A2): 25.1 µM (inconclusive)
EC50 [4]: 6.06 µM (active)

CC1CN(CC(O)COC(c2ccc(Cl)cc2)c2ccc(Cl)cc2)CC(C)O1 (configuration not stated)
AC50 (INS1): 11.9 µM (active)

CCN(CC)CCN1C(=O)c2oc3ccccc3c(=O)c2C1c1ccc(F)cc1 (configuration not stated)
EC50 [1]: 14.1 µM (active)
EC50 [2]: > 120 µM (not active)
EC50 (H4): 22.4 µM (active)

C#CCOCCOCCOCCNc1nc(N2CCN(C(=O)CCCCCCCCCCNC(=O)[C@H](CCCCN)n3cc(C[C@@H](C)CC)nn3)CC2)nc(N2CCN(C(=O)CCCCCCCCCCNC(=O)[C@@H]([C@H](C)O)n3cc(C)nn3)CC2)n1
AC50 (INS1): 4.74 µM (active)

Cc1cccc(C(=O)NNC(=O)C(=O)NC(C)(C)C)c1
AC50 (Cytochrome P450 2C19; read-out: AC50): 11.2 µM (inconclusive)

Cc1ccccc1NC(S)=NN1CCN(C)CC1
AC50 (Cytochrome P450 2C19; read-out: AC50): 25.1 µM (inconclusive)

Cc1nnc(SCC(=O)NC(=O)Nc2ccc3c(c2)OCCO3)n1N
EC50 [1]: 32.8 µM (active)
EC50 [2]: 11.9 µM (active)
EC50 (H4): > 120 µM (not active)

Cc1sc2ncnc(Sc3nc4ccccc4s3)c2c1C
EC50 [1]: > 120 µM (not active)
EC50 [2]: > 120 µM (not active)
EC50 (H4): > 120 µM (not active)

CCOc1ccc(NS(=O)(=O)c2ccc(C(=O)NCC3(N(C)C)CCCCC3)cc2)cc1
EC50 [3]: 8.72 µM (active)

C[C@]1(C(=O)O)[C@@H]2CC[C@@H](O2)[C@@]1(C)C(=O)O
AC50 (Cytochrome P450 2C19): inconclusive

CCOC(=O)c1cc([N+](=O)[O-])sc1NC(=O)c1ccc(S(=O)(=O)N2CC3(C)CC2CC(C)(C)C3)cc1 (configuration not stated)
EC50 [3]: 0.793 µM (active)

COc1ccc(-c2nc3c4c(ncn3n2)-c2ccccc2CC42CCCC2)cc1
EC50 [5]: > 120 µM (not active)
EC50 [6]: 14.7 µM (active)
EC50 [7]: 23 µM (active)

CCOC(=O)CN1C(=O)C(Sc2n[nH]c(-c3ccc(C)cc3)n2)CCc2ccccc21 (configuration not stated)
EC50 [5]: > 120 µM (not active)
EC50 [6]: > 120 µM (not active)
EC50 [7]: 19.1 µM (active)

COC(=O)c1ccc(CSc2nncn2C)cc1
EC50 [1]: 54.3 µM (active)
EC50 [2]: 9.45 µM (active)
EC50 (H4): 11.3 µM (active)
